Data published in PubChem BioAssay (NCI).
“And” between values parts separate entries of the source, which are not always exact repeats. Identical values can stand only once.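 These data come from cells grown in 96-well plates and exposed to compound for 48 hours at five concentrations. GI50 is the concentration that inhibits growth by half. The concentration for full growth arrest is given as TGI.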

Experiments:
Assay in all cases: NCI-60 cell line screen, 48 h
[1] = system: A498 renal
[2] = system: ACHN renal
[3] = system: COLO 205 colon
[4] = system: DU-145 prostate
[5] = system: HCC-2998 colon
[6] = system: HS 578T breast
[7] = system: LOX IMVI melanoma
[8] = system: MCF7 breast
[9] = system: MDA-MB-435
[10] = system: NCI-H522 lung
[11] = system: PC-3 prostate
[12] = system: SK-MEL-5 melanoma
[13] = system: SNB-75 CNS
[14] = system: UO-31 renal
[15] = system: NCI-H460 lung

Row | SMILES | TGI [1] | TGI [2] | TGI [3] | TGI [4] | TGI [5] | TGI [6] | TGI [7] | TGI [8] | TGI [9] | TGI [10] | TGI [11] | TGI [12] | TGI [13] | TGI [14] | TGI [15] | GI50 [3] | GI50 [5] | GI50 [6] | GI50 [10] | GI50 [12]
1 | COC(=O)C1(C)CCCC2(C)C3CCC4CC3(C=C4CO)CCC12 (stereo not drawn) | > 100 µM | > 100 µM | > 100 µM | > 100 µM | > 100 µM | > 100 µM | 47.4 µM | 72.7 µM | > 100 µM | > 100 µM | > 100 µM | > 100 µM | > 100 µM | > 100 µM |  |  |  |  |  | 
2 | COC(=O)CC1(O)C(/C=C/c2ccccc2)C(C(=O)OC)C(=O)C(C(=O)OC)C1C(=O)OC (stereo not drawn) | > 100 µM | > 100 µM | > 100 µM | > 100 µM | > 100 µM | > 100 µM | > 100 µM | > 100 µM | > 100 µM | > 100 µM | > 100 µM | > 100 µM |  | > 100 µM | > 100 µM |  |  |  |  | 
3 | [O-]c1c[n+](CC[n+]2cc([O-])on2)no1 | > 100 µM | > 100 µM | > 100 µM | > 100 µM | > 100 µM | > 100 µM | > 100 µM | > 100 µM | > 100 µM | > 100 µM | > 100 µM | > 100 µM | > 100 µM | > 100 µM | > 100 µM |  |  |  |  | 
4 | Cc1ccc(S(=O)(=O)NC2=NS(=O)(=O)c3cc(C)c(Cl)cc3S2)cc1 | > 100 µM | > 100 µM | > 100 µM | > 100 µM | > 100 µM | > 100 µM | > 100 µM | > 100 µM | > 100 µM | > 100 µM | > 100 µM | > 100 µM | > 100 µM | > 100 µM | > 100 µM |  |  |  |  | 
5 | CC(=O)N1C2=CCCC2(C)c2ccccc21 (stereo not drawn) | > 100 µM | > 100 µM | > 100 µM | > 100 µM | 99.7 µM | > 100 µM | > 100 µM | > 100 µM | > 100 µM | 94.8 µM | > 100 µM | > 100 µM | > 100 µM | > 100 µM | > 100 µM |  |  |  |  | 
6 | Cc1c(F)c(N)c2c(=O)cc(-c3ccc(NC(=O)[C@@H](N)CCCCN)c(F)c3)oc2c1F | 0.22 µM | 31.1 µM and 25.6 µM | 31.5 µM and 24.4 µM | 41.3 µM and 27.4 µM | 18.7 µM and 19.7 µM | 53.4 µM and 45.8 µM | 41.3 µM and 27.7 µM | 1.81 µM and 1.38 µM | 26.6 µM and 20.5 µM | 45.5 µM and 35.3 µM | 32 µM and 29.3 µM | 27.4 µM and 27.2 µM | 13.6 µM | 33.7 µM and 22.1 µM | 16.2 µM and 16.6 µM | 14.9 µM and 6.93 µM | 0.253 µM and 0.769 µM | 23.5 µM and 11.5 µM | 19.7 µM and 4.68 µM | 13.2 µM and 2.63 µM
7 | CN(C)/C=C/c1nnnn1-c1ccc(I)cc1 | > 100 µM | 63.1 µM | > 100 µM | 74.5 µM | > 100 µM | 45.2 µM | 41.1 µM | 65 µM | 60.7 µM | 68.8 µM | 46.2 µM | 33 µM | 32.2 µM | 39.1 µM | > 100 µM |  |  |  |  | 
8 | Nc1ncc(CN2CCOCC2)c(-c2ccccc2O)n1 | > 100 µM | > 100 µM | > 100 µM | > 100 µM |  | > 100 µM | > 100 µM | > 100 µM | > 100 µM |  | > 100 µM | > 100 µM | > 100 µM | > 100 µM | > 100 µM |  |  |  |  | 
9 | O=C(OC(/C=C/c1ccccc1)P1(=O)N(Cc2ccccc2)[C@@H]2CCCC[C@H]2N1Cc1ccccc1)c1ccccc1 (stereo partly drawn) | > 100 µM | > 100 µM | 4.75 µM | > 100 µM | > 100 µM | > 100 µM | > 74.9 µM | > 100 µM | > 100 µM | > 30.6 µM | > 100 µM | 11.4 µM | > 28.1 µM | 68.6 µM | > 27.3 µM |  |  |  |  | 
10 | COc1cc(/C=C2\CC3C4CC[C@H]5C[C@@H](O)CC[C@]5(C)C4CC[C@]3(C)C2=O)cc(OC)c1OC (stereo partly drawn) | 75.5 µM | 45.8 µM | 26.1 µM | > 100 µM | 34.9 µM | > 100 µM | 32.6 µM | 28.6 µM | 85.8 µM | 43.3 µM | > 100 µM | 22 µM | 79.7 µM | 31.7 µM | 38.9 µM |  |  |  |  | 
11 | [C-]#[N+]C1(C(=O)OCC)CC1 | > 100 µM | > 100 µM |  | > 100 µM | > 100 µM | > 100 µM | > 100 µM | > 100 µM | > 100 µM | > 100 µM | > 100 µM | > 100 µM | > 100 µM |  | > 100 µM |  |  |  |  | 
12 | CC(C)CCCC(C)[C@H]1CC[C@H]2[C@@H]3CC[C@H]4C[C@@H](CCC=C(c5cc(Cl)c(O)c(C(=O)O)c5)c5cc(Cl)c(O)c(C(=O)O)c5)CC[C@]4(C)[C@H]3CC[C@]12C (stereo partly drawn) (tested in a mixture with another compound) | > 50 µM | > 50 µM | > 50 µM | > 50 µM | > 50 µM | > 50 µM | > 50 µM | > 50 µM | > 50 µM | > 50 µM | > 50 µM | > 50 µM | > 50 µM | 27.2 µM | > 50 µM |  |  |  |  | 
13 | O=C1c2ccccc2-c2c1c(-c1ccccc1)c1n2C2(C(=O)c3ccccc3C2=O)C2C(=O)N(c3ccccc3)C(=O)C12 (stereo not drawn) | > 100 µM | > 100 µM | 50.7 µM | > 100 µM |  | 63.7 µM | 32.8 µM | 73.4 µM | 50.3 µM | 33.6 µM | 81.6 µM | 35.3 µM | 79.2 µM | 79.3 µM | 36.9 µM |  |  |  |  | 
14 | CC1CC(C)(O)CC(C(O)CC2CC(=O)NC(=O)C2)C1=O (stereo not drawn) | 3.51 µM | 1.17 µM | 1.01 µM | 1.85 µM | 1.59 µM | 0.316 µM | 0.785 µM | 0.686 µM | 2.1 µM | < 0.0476 µM | 5.63 µM | 0.195 µM | 1.27 µM | 1.16 µM | 1.76 µM |  |  |  |  | 
15 | C/C1=C\CC/C(C)=C/C=C(/C(C)C)CC/C(C(=O)O)=C/CC1 | 75.1 µM | > 100 µM | 43.2 µM | > 100 µM | > 100 µM | > 100 µM | > 100 µM | > 100 µM | > 100 µM | > 100 µM | > 100 µM | > 100 µM | > 100 µM | > 100 µM | > 100 µM |  |  |  |  | 
